Measurements: ChEMBL document CHEMBL3046424, “Growth inhibitory effects on fall armyworm Spodoptera frugiperda of some limonoids isolated from Cedrela spp. (Meliaceae)” (2000)
≈ marks a conversion by molar mass, not a printed value.

Columns and labels:
Type in all cases: functional
[1] = system: Spodoptera frugiperda; test: Insecticidal activity against Spodoptera frugiperda (fall armyworm) assessed as mean emergence days at 52 ug/ml in artificial diet (reference value: 33 days)
[2] = system: Spodoptera frugiperda; test: Insecticidal activity against Spodoptera frugiperda (fall armyworm) assessed as mean length at 5 ug/ml in artificial diet measured after 7 days (reference value: 28 +/- 4.1 mg)
[3] = system: Spodoptera frugiperda; test: Insecticidal activity against Spodoptera frugiperda (fall armyworm) assessed as mean time to pupation at 5 ug/ml in artificial diet (reference value: 22 days)
[4] = system: Spodoptera frugiperda; test: Insecticidal activity against Spodoptera frugiperda (fall armyworm) assessed as mean weight of pupae at 5 ug/ml in artificial diet (reference value: 281.5 +/- 10.3 mg)
[5] = system: Spodoptera frugiperda; test: Insecticidal activity against Spodoptera frugiperda (fall armyworm) assessed as mortality at 5 ug/ml in artificial diet measured after 7 days (reference value: 8.33%); details: 168 h
[6] = system: Spodoptera frugiperda; test: Insecticidal activity against Spodoptera frugiperda (fall armyworm) assessed as mean emergence at 25 ug/ml in artificial diet (reference value: 83.3 %)
[7] = system: Spodoptera frugiperda; test: Insecticidal activity against Spodoptera frugiperda (fall armyworm) assessed as mean length at 52 ug/ml in artificial diet measured after 7 days (reference value: 0.95 +/- 0.2 cm)
[8] = system: Spodoptera frugiperda; test: Insecticidal activity against Spodoptera frugiperda (fall armyworm) assessed as mean length at 25 ug/ml in artificial diet measured after 7 days (reference value: 0.95 +/- 0.2 cm)
[9] = system: Spodoptera frugiperda; test: Insecticidal activity against Spodoptera frugiperda (fall armyworm) assessed as mean length at 5 ug/ml in artificial diet measured after 7 days (reference value: 0.95 +/- 0.2 cm)
[10] = system: Spodoptera frugiperda; test: Insecticidal activity against Spodoptera frugiperda (fall armyworm) assessed as mean pupation at 52 ug/ml in artificial diet (reference value: 87.5 %)
[11] = system: Spodoptera frugiperda; test: Insecticidal activity against Spodoptera frugiperda (fall armyworm) assessed as mortality at 25 ug/ml in artificial diet measured after 7 days (reference value: 8.33%); details: 168 h
[12] = system: Spodoptera frugiperda; test: Insecticidal activity against Spodoptera frugiperda (fall armyworm) assessed as mean emergence at 5 ug/ml in artificial diet (reference value: 83.3 %)
[13] = system: Spodoptera frugiperda; test: Insecticidal activity against Spodoptera frugiperda (fall armyworm) assessed as mean weight gain at 70 ug/ml in artificial diet measured after 7 days (reference value: 75.5 +/- 8.24 mg)
[14] = system: Spodoptera frugiperda; test: Insecticidal activity against Spodoptera frugiperda (fall armyworm) assessed as mean weight gain at 25 ug/ml in artificial diet measured after 7 days (reference value: 75.5 +/- 8.24 mg)
[15] = system: Spodoptera frugiperda; test: Insecticidal activity against Spodoptera frugiperda (fall armyworm) assessed as mortality at 52 ug/ml in artificial diet measured after 7 days (reference value: 8.33%); details: 168 h
[16] = system: Spodoptera frugiperda; test: Insecticidal activity against Spodoptera frugiperda (fall armyworm) assessed as mean weight gain at 25 ug/ml in artificial diet measured after 7 days (reference value: 469.5 +/- 6.59 mg)
[17] = system: Spodoptera frugiperda; test: Insecticidal activity against Spodoptera frugiperda (fall armyworm) assessed as mean length at 52 ug/ml in artificial diet measured after 7 days (reference value: 28 +/- 4.1 mg)
[18] = system: Spodoptera frugiperda; test: Insecticidal activity against Spodoptera frugiperda (fall armyworm) assessed as mean time to pupation at 52 ug/ml in artificial diet (reference value: 22 days)
[19] = system: Spodoptera frugiperda; test: Insecticidal activity against Spodoptera frugiperda (fall armyworm) assessed as mean pupation at 25 ug/ml in artificial diet (reference value: 87.5 %)
[20] = system: Spodoptera frugiperda; test: Insecticidal activity against Spodoptera frugiperda (fall armyworm) assessed as mean weight gain at 5 ug/ml in artificial diet measured after 7 days (reference value: 75.5 +/- 8.24 mg)
[21] = system: Spodoptera frugiperda; test: Insecticidal activity against Spodoptera frugiperda (fall armyworm) assessed as mean weight gain at 52 ug/ml in artificial diet measured after 7 days (reference value: 469.5 +/- 6.59 mg)
[22] = system: Spodoptera frugiperda; test: Insecticidal activity against Spodoptera frugiperda (fall armyworm) assessed as mean weight of pupae at 52 ug/ml in artificial diet (reference value: 281.5 +/- 10.3 mg)
[23] = system: Spodoptera frugiperda; test: Insecticidal activity against Spodoptera frugiperda (fall armyworm) assessed as mean length at 70 ug/ml in artificial diet measured after 7 days (reference value: 0.95 +/- 0.2 cm)
[24] = system: Spodoptera frugiperda; test: Insecticidal activity against Spodoptera frugiperda (fall armyworm) assessed as mean weight of pupae at 25 ug/ml in artificial diet (reference value: 281.5 +/- 10.3 mg)
[25] = system: Spodoptera frugiperda; test: Insecticidal activity against Spodoptera frugiperda (fall armyworm) assessed as mean emergence days at 25 ug/ml in artificial diet (reference value: 33 days)
[26] = system: Spodoptera frugiperda; test: Insecticidal activity against Spodoptera frugiperda (fall armyworm) assessed as mean weight gain at 52 ug/ml in artificial diet measured after 7 days (reference value: 75.5 +/- 8.24 mg)
[27] = system: Spodoptera frugiperda; test: Insecticidal activity against Spodoptera frugiperda (fall armyworm) assessed as mean pupation at 5 ug/ml in artificial diet (reference value: 87.5 %)
[28] = system: Spodoptera frugiperda; test: Insecticidal activity against Spodoptera frugiperda (fall armyworm) assessed as mean time to pupation at 25 ug/ml in artificial diet (reference value: 22 days)
[29] = system: Spodoptera frugiperda; test: Insecticidal activity against Spodoptera frugiperda (fall armyworm) assessed as mortality at 70 ug/ml in artificial diet measured after 7 days (reference value: 8.33%); details: 168 h
[30] = system: Spodoptera frugiperda; test: Insecticidal activity against Spodoptera frugiperda (fall armyworm) assessed as mean weight gain at 5 ug/ml in artificial diet measured after 7 days (reference value: 469.5 +/- 6.59 mg)
[31] = system: Spodoptera frugiperda; test: Insecticidal activity against Spodoptera frugiperda (fall armyworm) assessed as mean length at 25 ug/ml in artificial diet measured after 7 days (reference value: 28 +/- 4.1 mg)
[32] = system: Spodoptera frugiperda; test: Insecticidal activity against Spodoptera frugiperda (fall armyworm) assessed as mean emergence at 52 ug/ml in artificial diet (reference value: 83.3 %)
[33] = system: Spodoptera frugiperda; test: Insecticidal activity against Spodoptera frugiperda (fall armyworm) assessed as mean emergence days at 5 ug/ml in artificial diet (reference value: 33 days)
[34] = system: Spodoptera frugiperda; test: Insecticidal activity against Spodoptera frugiperda (fall armyworm) assessed as mortality measured after 7 days; details: 168 h

In the case of `CCC(=O)[C@@H]1C(=O)O[C@@]2(C=O)[C@H]1[C@](C)([C@@H](OC(C)=O)c1ccoc1)CC[C@@H]2[C@@]1(C)C(=O)C[C@@H]2O[C@@H](C(=O)OC)[C@H]1C2(C)C` [CEDRELANOLIDE], the Time [1] is reported as 33 days, the Activity [2] is reported as 8.7 mm and the Time [3] is reported as 22 days. For the same compound, the Activity [4] was 221.9 mg, the mortality at 5 µg/mL [5] was 15% and the Activity [6] was 62.5%. For the same compound, the Activity [7] was 0.7 cm, the Activity [8] was 0.95 cm and the Activity [9] was 1.2 cm. It also gave an Activity [10] of 62.5%, a mortality at 25 µg/mL [11] of 21% and an Activity [12] of 79.2%. For the same compound, the Activity [13] was 9.1 mg, the Activity [14] was 20.8 mg and the mortality at 52 µg/mL [15] was 28%. It also gave an Activity [16] of 41.6 mg, an Activity [17] of 5.3 mm and a Time [18] of 22.5 days. It also gave an Activity [19] of 66.7%, an Activity [20] of 27.85 mg and an Activity [21] of 40.1 mg. It also gave an Activity [22] of 123.9 mg, an Activity [23] of 0.51 cm and an Activity [24] of 191.8 mg. For the same compound, the Time [25] was 33 days, the Activity [26] was 15.4 mg and the Activity [27] was 79.2%. It also gave a Time [28] of 21.5 days, a mortality at 70 µg/mL [29] of 38% and an Activity [30] of 55.7 mg. The Activity [31] was 6.7 mm, the Activity [32] was 50% and the Time [33] was 33 days.

For `CC(=O)O[C@@H]1C[C@H](O)[C@@]23CO[C@@H](O)[C@]1(C)[C@@H]2C[C@@H](O)[C@]1(C)[C@@H]3C(=O)[C@H](OC(C)=O)[C@@]2(C)[C@H](c3ccoc3)C[C@H]3O[C@]321` [TOOSENDANIN], the Activity [2] was 7 mm, the Time [3] was 23.5 days and the Activity [4] was 95 mg. It also gave a mortality at 5 µg/mL [5] of 40%, an Activity [6] of 4.17% and an Activity [7] of 0.57 cm. It also gave an Activity [8] of 0.77 cm, an Activity [9] of 0.98 cm and an Activity [10] of 4.17%. It also gave a mortality at 25 µg/mL [11] of 70%, an Activity [12] of 16.7% and an Activity [14] of 2.3 mg. The mortality at 52 µg/mL [15] was 89%, the Activity [16] was 17 mg and the Activity [17] was 2.8 mm. It also gave a Time [18] of 24 days, an Activity [19] of 4.17% and an Activity [20] of 5.1 mg. For the same compound, the Activity [21] was 11.2 mg, the LC50 [34] was 7 µg/mL (≈ 12.2 µM) and the Activity [22] was 38 mg. For the same compound, the Activity [24] was 45.1 mg, the Time [25] was 36 days and the Activity [26] was 1 mg. It also gave an Activity [27] of 17.9%, a Time [28] of 24 days and an Activity [30] of 21.5 mg. The Activity [31] was 6.1 mm, the Activity [32] was 0% and the Time [33] was 36 days.
